According to patent publication US20250171434A1, “SEC61 INHIBITORS AND USE THEREOF” (KEZAR LIFE SCIENCES, INC., priority 2022, published 2025):

What was measured:
[1] = system: IL6R-ss+10aa/Gaussia Luciferase; test: Dox-induced IL-6R-ss-Gluc Assay; type: cell-based; conditions: Table 1; for IC50: Flp-In 293 T-REx cells, 24 hours with doxycycline, read-out: 24hr Dox Inducible IL6R(ss + 10)Gluc 293FRT/TO: Mean IC50; for 24hr Dox Inducible IL6R(ss + 10)Gluc 293FRT/TO: IL6R/PD1: ratio of IC50s IL6R/PD1
Excerpt: Flp-In 293 T-REx™ cells were transfected with pcDNATM5/FRT/TO plasmid inserted with cDNA encoding Gaussia Luciferase fused to the 3′ end of cDNA encoding IL6R signal sequence plus 10 amino acids (N-[…]-C). Transfected cells were selected for resistance to the selectable markers Hygromycin and Blasticidin to create a stable cell line that contained the IL6R-ss+10aa/Gaussia Luciferase cDNA insert whose expression was regulated under the T-REx™ system. The day before assay, cells were trypsinized and plated in 384-well tissue culture plates. The next day, compound dilutions in DMSO/media containing doxycycline were added to the wells and incubated at 37° C., 5% CO2.
(§1) For chemical structures that include one or more stereoisomers, but are illustrated without indicating stereochemistry, the assay data refers to a mixture of stereoisomers.

[2] = system: IL-2-FL/Gaussia Luciferase; test: Dox Inducible IL2-FL-Gluc Assay; type: cell-based; conditions: Table 1; for IC50: Flp-In 293 T-REx cells, 24 hours with doxycycline, read-out: 24 hr Dox Inducible IL2FLGluc 293FRT/TO: Mean IC50; for 24 hr Dox Inducible IL2FLGluc 293FRT/TO: IL2/PD1: ratio of IC50s IL2/PD1
Excerpt: Flp-In 293 T-REx™ cells were transfected with pcDNA™5/FRT/TO plasmid inserted with cDNA encoding Gaussia Luciferase fused to the 3′ end of cDNA encoding full length IL-2 (amino acids 1-153). Transfected cells were selected for resistance to the selectable markers Hygromycin and Blasticidin to create a stable cell line that contained the IL-2-FL/Gaussia Luciferase cDNA insert whose expression was regulated under the T-REx™ system. The day before assay, cells were trypsinized and plated in 384-well tissue culture plates. The next day, compound dilutions in DMSO/media containing doxycycline were added to the wells and incubated at 37° C., 5% CO2.
as §1

[3] = Liver Microsome Stability Assay, human; type: in vitro ADME; conditions: human liver microsomes 1.0 mg/mL, 1.0 uM compound, 37° C., 1 mM NADPH
Method: (§2) Stability of a compound was assessed in the presence of liver microsomes from various sources—mouse, rat, monkey and human liver microsomes. 1.0 uM compound, 0.4% DMSO in 0.1 M Potassium Phosphate with 1.0 mg/mL liver microsomes, were incubated at 37° C. with or without 1 mM NADPH. The samples were quenched at 0, and 30 minutes.

CD47(ss + 10)Gluc = test: Dox-Induced CD47-ss-Gluc Assay; type: cell-based; conditions: Flp-In 293 T-REx cells, 24 hours with doxycycline; Table 1; read-out: 24 hr Dox Inducible CD47(ss + 10)Gluc 293FRT/TO: Mean IC50
[4] = Liver Microsome Stability Assay, rat; type: in vitro ADME; conditions: rat liver microsomes 1.0 mg/mL, 1.0 uM compound, 37° C., 1 mM NADPH
Method: as §2

[5] = system: PD1-ss+10aa/Gaussia Luciferase; test: Dox-Induced PD1-ss-Gluc Assay; type: cell-based; conditions: Flp-In 293 T-REx cells, 24 hours with doxycycline; Table 1; read-out: 24 hr Dox Inducible PD1ssGluc 293FRT/TO: Mean IC50
Excerpt: Flp-In 293 T-REx™ cells were transfected with pcDNA™5/FRT/TO plasmid inserted with cDNA encoding Gaussia Luciferase fused to the 3′ end of cDNA encoding PD1 signal sequence plus 10 amino acids (N-[…]-C) (SEQ ID NO: 1). Transfected cells were selected for resistance to the selectable markers Hygromycin and Blasticidin to create a stable cell line that contained the PD1-ss+10aa/Gaussia Luciferase cDNA insert whose expression was regulated under the T-REx™ system. The day before assay, cells were trypsinized and plated in 384-well tissue culture plates. The next day, compound dilutions in DMSO/media containing doxycycline were added to the wells and incubated at 37° C., 5% CO2.
as §1

[6] = system: multiple myeloma cell line NCI-H929; test: H929 Cell Viability Assay; type: cell-based, human; conditions: Homo sapiens; NCI-H929 cells, 48 hours, Celltiter-Glo; read-out: 48 hr H929 Viability Celltiter-Glo: Mean EC50
Method: The human multiple myeloma cell line NCI-H929 was cultured in Advanced RPMI 1640 media (Gibco®) supplemented with 6% fetal bovine serum, 2 mM Glutamine, and 1× Penicillin/Streptomycin. On the day of assay, cells were resuspended in RPMI 1640 media supplemented with 10% fetal bovine serum, 2 mM Glutamine, and 1× Penicillin/Streptomycin and plated in 384-well tissue culture plates and treated with compound dilutions in DMSO/media. Plates were incubated at 37° C., 5% CO2 for 48 hours. After 48 hours, Celltiter-Glo® (Promega) was added to each well and luciferase signal was quantified using Tecan Infinite M1000 Pro for cell viability determination.
as §1

[7] = system: multiple myeloma cell line U266B1; test: U266 Cell Viability Assay; type: cell-based; conditions: Homo sapiens, U-266; U266B1 cells, 48 hours, Celltiter-Glo; read-out: 48 hr U266 Viability Celltiter-Glo: Mean EC50
Method: The human multiple myeloma cell line U266B1 was cultured in RPMI 1640 media supplemented with 10% fetal bovine serum, 2 mM Glutamine, and 1× Penicillin/Streptomycin. Cells were plated in 384-well tissue culture plates and treated with compound dilutions in DMSO/media. Plates were incubated at 37° C., 5% CO2 for 48 hours. After 48 hours, Celltiter-Glo® (Promega) was added to each well and luciferase signal was quantified using Tecan Infinite M1000 Pro for cell viability determination.
as §1

[8] = Liver Microsome Stability Assay, monkey; type: in vitro ADME; conditions: monkey liver microsomes 1.0 mg/mL, 1.0 uM compound, 37° C., 1 mM NADPH
Method: as §2

[9] = Liver Microsome Stability Assay, mouse; type: in vitro ADME; conditions: mouse liver microsomes 1.0 mg/mL, 1.0 uM compound, 37° C., 1 mM NADPH
Method: as §2

SMILES	IC50 [1]	24hr Dox Inducible IL6R(ss + 10)Gluc 293FRT/TO: IL6R/PD1 [1]	IC50 [2]	24 hr Dox Inducible IL2FLGluc 293FRT/TO: IL2/PD1 [2]	Liver Microsome Stability (Multiple Species): Human - % Remaining after 30 min w/ NADPH (%) [3]	IC50 (CD47(ss + 10)Gluc)	Liver Microsome Stability (Multiple Species): Rat - % Remaining after 30 min w/ NADPH (%) [4]	IC50 [5]	EC50 [6]	EC50 [7]	Liver Microsome Stability (Multiple Species): Monkey - % Remaining after 30 min w/ NADPH (%) [8]	Liver Microsome Stability (Multiple Species): Mouse - % Remaining after 30 min w/ NADPH (%) [9]
COc1cc(C(=O)Nc2nc(/C=C/c3ncn(C(C)C)c3Cl)cs2)n(Cc2ccnc(F)c2)c1 [Compound A2, (E)-N-(4-(2-(5-chloro-1-isopropyl-1H-imidazol-4-yl)vinyl)thiazol-2-yl)-1-((2-fluoropyridin-4-yl)methyl)-4-methoxy-1H-pyrrole-2-carboxamide]	3.27 µM	133	4.17 µM	170	15%	3.81 µM	72%	0.024 µM	> 25 µM	> 25 µM	35%	68%
CN[C@H]1CC[C@H](/C=C/c2csc(NC(=O)c3cccn3Cc3ccncc3)n2)CC1 [Compound B12, N-(4-((E)-2-((1r,4r)-4-(methylamino)cyclohexyl)vinyl)thiazol-2-yl)-1-(pyridin-4-ylmethyl)-1H-pyrrole-2-carboxamide]	> 25 µM	>1.5	7.13 µM	0.4	<1%	15.6 µM	12%	17.1 µM	> 25 µM	> 25 µM	<1%	57%
COc1cc(C(=O)Nc2nc(/C(F)=C/c3cn(C(C)C)cn3)cs2)n(Cc2ccnc(F)c2)c1 [Compound A9, (Z)-N-(4-(1-fluoro-2-(1-isopropyl-1H-imidazol-4-yl)vinyl)thiazol-2-yl)-1-((2-fluoropyridin-4-yl)methyl)-4-methoxy-1H-pyrrole-2-carboxamide]	> 25 µM		> 25 µM		11%	> 25 µM	66%	> 25 µM	> 25 µM	> 25 µM	9%	64%
COc1cc(C(=O)Nc2nc(/C=C/c3ncn(C(C)C)c3Cl)c(CO)s2)n(Cc2ccnc(F)c2F)c1 [Compound A21]	> 25 µM	>105	> 25 µM	>110	1%	5.87 µM	59%	0.238 µM	> 25 µM	> 25 µM	<1%	51%
O=C(Nc1nc(/C=C/c2ncn(C3CC3)c2Cl)cs1)c1cc(C(F)F)cn1Cc1ccnc(F)c1 [Compound A29, (E)-N-(4-(2-(5-chloro-1-cyclopropyl-1H-imidazol-4-yl)vinyl)thiazol-2-yl)-4-(difluoromethyl)-1-((2-fluoropyridin-4-yl)methyl)-1H-pyrrole-2-carboxamide]	> 25 µM	>517	> 25 µM	>650	51%	> 25 µM	1%	0.048 µM	> 25 µM	> 25 µM	43%	21%
N[C@H]1CC[C@@H](/C=C/c2csc(NC(=O)c3cccn3Cc3ccncc3)n2)CC1 [Compound B16, N-(4-((E)-2-((1s,4s)-4-aminocyclohexyl)vinyl)thiazol-2-yl)-1-(pyridin-4-ylmethyl)-1H-pyrrole-2-carboxamide]	8.77 µM	1	19.5 µM	2.4	1%	7.07 µM	47%	8.11 µM	19.3 µM	21.3 µM	2%	79%
O=C(Nc1nc(/C=C/C2CCC(F)(F)CC2)cs1)c1cccn1Cc1ccnc(F)c1 [Compound B29, (E)-N-(4-(2-(4,4-difluorocyclohexyl)vinyl)thiazol-2-yl)-1-((2-fluoropyridin-4-yl)methyl)-1H-pyrrole-2-carboxamide]	0.922 µM	8	1.43 µM	12.0		0.838 µM		0.112 µM				
